Here are results for three compounds from patent publication US10159736B2, “Plant virus particles for delivery of photosensitive agents” (Case Western Reserve University, priority 2016, dated 2018).

In one data set the test system is B16F10. The conditions noted are these: cited from earlier work.
The subject of the next data set is RAW 264.7 macrophages. In words: LIVE/DEAD cell viability assay of macrophages after photodynamic therapy. The class given is cell-based. As for the experimental part: Uptake of PS-CPMV* and its efficacy for PDT of RAW 264.7 murine macrophages was initially tested using a LIVE/DEAD cell viability assay in a 96-well plate. The macrophages were allowed 8 h to take up either PS-CPMV* at a concentration of 5.0 μM PS or CPMV, CPMV*, and PS controls normalized according to PS or CPMV concentration. After washing, PDT was initialized using a mirror setup where light from a projector was reflected on the cell plate for 30 min. Cells were incubated overnight, then stained with a combination of calcein-AM and ethidium homodimer-1 to detect live and dead cells, respectively (FIG. 4a).
RAW 264.7 macrophages were seeded overnight in 96-well plates, with one plate used as a dark control, at a concentration of 10,000 cells/100 μL Dulbecco's modified Eagle's medium (DMEM, Gibco) supplemented with 10% (v/v) fetal bovine serum (FBS, Atlanta Biologicals) and 1% (v/v) penicillin-streptomycin (pen-strep, Life Technologies). Cells were then incubated for 8 h at 37° C. and 5% CO2 with triplicates of CPMV, CPMV*, PS-CPMV*, or PS corresponding to 5.0 μM PS or normalized for nanoparticle concentration accordingly. […] Cell viability was determined using a LIVE/DEAD assay for mammalian cells (Thermo Fisher) following manufacturer's procedures for cell staining and using a Zeiss Axio Observer Z1 motorized FL inverted microscope for imaging. […]

For data set [1], the system named is B16F10 melanoma cells. Description: LIVE/DEAD cell viability assay of melanoma cells. It counts as cell-based. The conditions noted are these: 5.0 μM, 8 hours, light 30 minutes. The source says: The MTT assay is based on a yellow tetrazolium dye that is reduced to purple formazan via NAD(P)H-dependent oxidoreductase enzymes. This reduction is highly dependent on cellular metabolism in the mitochondria and is not high in cells with low cellular metabolic activity. Liu et al., Journal of neurochemistry, 69 (2), 581-93 (1997). Because photosensitizers are known to impact the functionality of the mitochondria, the MTT assay may be compromised as a result of impaired mitochondrial activity. Therefore, LIVE/DEAD cell viability assays were performed to further confirm therapeutic efficacy and cell killing. Cells were incubated with 5.0 μM of free Zn-EpPor or Zn-EpPorTMV, or corresponding controls, for 8 hours, washed, and illuminated for 30 minutes. This drug concentration was based on the MTT assay; it is over four times the IC50 value in B16F10 melanoma and should give maximal cell killing. The LIVE/DEAD assay was applied the next day, imaged, and images were analyzed using ImageJ to determine percent cell viability (FIG. 9B). […] On the contrary, cells exposed to both Zn-EpPor or Zn-EpPorTMV and light had 100% cell killing.
The staining procedure was as per manufacturer's recommendation.

The test system of data set [2] is B16F10 melanoma cells. In words: MTT cell viability assay after white light illumination (Example II).
Method: Untreated cells and drug-free TMV carrier were used as controls. The TMV concentration was normalized to the drug-loaded concentration and corresponded to the highest amount of TMV used to determine the IC50 curves (FIG. 9A). Drug candidates and controls were incubated with B16F10 cells for 8 hours, washed, and then exposed to white light from a Vivitek D950HD projector under a rectangle (10.5 cm×11 cm) for 30 minutes. Following illumination, cells were returned to the incubator for 48 hours. Cell viability was assessed using an MTT cell viability assay and analyzed using GraphPad Prism.
Cell viability was assayed using MTT and LIVE/DEAD assays. Confluent cells were removed using 0.05% (w/v) trypsin-EDTA, added to 96-well plates (100 μL/well, 2×10^4 cells/mL), and grown overnight. Native TMV, drug loaded Zn-EpPorTMV, vs. free Zn-EpPor were added to cells using 0.025, 0.05, 0.1, 0.25, 0.5, 1.0, and 5.0 μM Zn-EpPor; cells were incubated for 8 hours at 37° C. and 5% CO2. Assays were done in triplicates and repeated at least twice. […] Cell viability was assessed using an MTT cell proliferation assay (ATCC); the procedure was as per manufacturer's recommendation. Alternatively, cell viability and cytotoxicity was determined using the LIVE/DEAD Viability/Cytotoxicity Kit for mammalian cells (ThermoFisher). […] Images were analyzed for percentage cell viability using ImageJ 1.47d.
Data set [3] deals with B16F10 melanoma cells. In words: Flow cytometry of cell uptake (Zn-EpPor fluorescence). It counts as cell-based. The conditions noted are these: 10^6 particles/cell or corresponding amount of free drug, 8 hours. The method, then:
Cell binding and uptake of the PDT delivery system was measured using both flow cytometry and confocal microscopy. […] Cell uptake was measured as a function of Zn-EpPor fluorescence (FIG. 8A). […] These studies were complemented with confocal microscopy to determine the intracellular fate of Zn-EpPor delivered by TMV. Following an 8-hour incubation of B16F10 cells with Zn-EpPorTMV particles, cells were fixed and stained with wheat germ agglutinin. Confocal fluorescence microscopy confirmed that Zn-EpPor is both taken up by the cells, and also dispersed throughout the cytoplasm (FIG. 8B), allowing it to exert their mechanism of action. The intracellular distribution of the Zn-EpPor drug was consistent with intracellular release of the cargo. We hypothesize that TMV is taken up and trafficked to the endolysosome, as previously reported. Wen et al., Bioconjugate chemistry, 26 (1), 51-62 (2015). […]
Confluent B16F10 cells were removed using Hank's based cell dissociation buffer (ThermoFisher) and added to 96-well v-bottom plates (200 μL/well, 2.5×10^6 cells/mL). […] Cells were washed 2 times, then resuspended in FACS buffer and analyzed on a BD FACSAria flow cytometer. Live cells were gated and 10,000 events were recorded; all experiments were carried out in triplicate. Data were analyzed on FlowJo 8.6.3 software.
Background: A flow cytometer gives signals particle by particle.

The nature of data set [4]: Storage in the fridge, visual examination. It counts as physicochemical. The conditions noted are these: stored in the fridge over a period of a month.

Usually IC50 stands for the concentration at which inhibition is half-maximal.

As to `C=Cc1c(C)c2cc3nc(c(CC(=O)N[C@@H](CC(=O)O)C(=O)O)c4[nH]c(cc5nc(cc1[nH]2)C(C)=C5CC)c(C)c4C(=O)O)[C@@H](CCC(=O)O)[C@@H]3C` [Talaporfin, talaporfin], the IC50 with B16F10 (B16F10, previously reported) was 8.5 µM.

Consider `C#Cc1ccc(C2=C3C=CC(=N3)C(c3cc[n+](C)cc3)=c3ccc4[n]3[Zn][n]3c2ccc3C(c2cc[n+](C)cc2)=C2C=CC(=N2)C=4c2cc[n+](C)cc2)cc1.[I-].[I-].[I-]` [Zn-EpPor, 5-(4-ethynylphenyl)-10,15,20-tris-(4-methylpyridin-4-ium-1-yl)porphyrin-zinc(II) triiodide], for which, in the data set on RAW 264.7 macrophages (5.0 μM PS, 8 h uptake, light 30 min, staining next day), the “elimination of macrophages after PDT” value is “completely eliminating the macrophages”. The “cytotoxicity in dark controls” value with RAW 264.7 macrophages (absence of light therapy) is reported as “no cytotoxicity”. This compound also returned a cell killing with B16F10 melanoma cells [1] of 100%. Moreover, the IC50 in the data set on B16F10 melanoma cells [2] (8 hours incubation, white light 30 minutes, MTT after 48 hours, concentration as Zn-EpPor) was 0.54 µM. In addition, the “cell killing in the dark” value with B16F10 melanoma cells [2] (no illumination) is recorded as “no cell killing was observed”. Further, the “mean fluorescence intensity (MFI)” value with B16F10 melanoma cells [3] was 956. Also, the dispersion on storage entry in data set [4] was “aggregation and sedimentation”.

porfimir sodium [Photofrin]: in the data set with B16F10 (melanin-heavy cells, such as the B16F10 cell line), the “efficacy in pigmented melanoma” value is “ineffective”.
